# Key:
# [1] = test system: tumor cells; conditions: Karlsson et al. 2013; Yang et al. 2020; cited from earlier work
# [2] = test system: MINO, Z-138, MAVER, OCI-Ly18, SU-DHL-4, NALM6, MOLM-14; assay: CART plus venetoclax or AZD5991 tumor killing, 48 hours; assay type: cell-based; conditions: AZD5991 125 nM, with CART19 (CART33 for MOLM-14)
# Protocol: To investigate whether inhibition of MCL-1, another key anti-apoptotic regulator, lead to enhancement of tumor killing, various B-cell malignant (luciferase+) cell lines were co-cultured with either vehicle (DMSO), venetoclax or AZD5991 in the presence of CART19 for 48 hours and change of luminescence intensity was measured to quantify the tumor killing. To test the combination effect of CART/drug in different tumor types, AML cell lines (luciferase positive MOLM-14) were co-cultured with CART33 in the presence of either venetoclax or AZD5991. Tumor killing (%) was calculated using the formula: (sample−maximal tumor growth)/(lysis control−maximal tumor growth)×100. MINO (Venetoclax: 1 nM, AZD5991: 125 nM), Z-138 (Venetoclax: 25 nM, AZD5991: 125 nM), MAVER (Venetoclax: 25 nM, AZD5991: 125 nM), OCI-Ly18 (Venetoclax: 10 nM, AZD5991: 125 nM), SU-DHL-4 (Venetoclax: 500 nM, AZD5991: 125 nM), NALM6 (Venetoclax: 500 nM, AZD5991: 125 nM), MOLM-14 (Venetoclax: 125 nM, AZD5991: 125 nM). […] CART19: anti-CD19 CAR T cell.
# CART19 cells were co-cultured with either vehicle (DMSO) or venetoclax and cytotoxicity was measured at 48 hours. […] This effect was further confirmed using primary NHL cells (MCL) (FIG. 1D). […]
# [3] = test system: CART19; assay: AZD5991 CART cell toxicity, co-culture with irradiated NALM6 for 120 hours; assay type: cell-based, human; conditions: 110-10000 nM, E:T 0.25:1
# Protocol: To quantify CART cell toxicity, CART19 was co-cultured with irradiated NALM6 in the presence of either vehicle (DMSO), venetoclax or AZD5991 for 120 hours. After co-culture, samples were stained with anti-CD3 antibody and anti-CAR19 idiotype antibody to distinguish between effector (T cells) and target cells (NALM6). Survival of CART cell were then measured by using flow cytometry. E:T ratio=0.25:1. Concentrations of venetoclax and AZD5991: 110 nM, 330 nM, 1100 nM, 3300 nM and 10000 nM. […] All data represent mean±SD. **P<0.005, *P<0.05. ns: not significant.
# To investigate this hypothesis, the expansion and persistence of CART19 cells in the peripheral blood of NSG mice treated with CART19 plus venetoclax or CART19 alone was analyzed using flow cytometry. […] To test whether prolonged exposure to venetoclax leads to CART cell toxicity, an in vitro venetoclax toxicity assay was performed using CART cells manufactured from 8 different T cell donors. […] Of note, the level of toxicity to CART cells varied among the different T cell donors, likely due to different apoptotic priming statuses at baseline. […] In order to discern whether the reduced survival was due to increased apoptosis or reduction of proliferation, the caspase 3/7 activity in CART19 was assessed in the presence or absence of venetoclax. […]
# [4] = test system: NALM6; assay: Targeted pro-apoptotic small molecule screening with CART19 against NALM6, killing by luminescence at 48 hours; conditions: drug 100 and 1000 nM with CART19
# Protocol: Killing of NALM6 cells was quantified at 48 hours by luminescence. Drug screening of pro-apoptotic small molecules was performed with two concentrations (100 and 1000 nM). […] Two concentrations of 29 drugs were used (100 nM and 1000 nM). Killing of NALM6 cells was assessed at 48 hours by luminescence. […] UTD: untransduced T cells; CART19: anti-CD19 CAR T cell; MCL: mantle cell lymphoma; E:T=ratio of effector to target; IAP: Inhibition of apoptosis protein.
# CART19 and NALM6 (luciferase+) cells were seeded at a ratio of 0.08E:1T (i.e., 600 CART: 7000 NALM6) per well in 25 μl of growth medium (RPMI1640+10% FBS+1% Pen-strep+1% glutamine) of 384-well Corning 3570 microplate using a Multidrop™ Combi Reagent Dispenser (Thermo Scientific). Following cell seeding, drugs (50 nL) were transferred to assay plates using a 50 nL slotted pin tool (V&P Scientific) and a JANUS Automated Workstation (Perkin Elmer). Compounds/drugs were added to a final concentration of 1 μM in 0.2% DMSO. Columns 1 and 23 were treated with 0.2% DMSO (negative control). […] Luminescence was measured on an EnVision Xcite Multilabel Plate Reader (PerkinElmer), using the ultrasensitive luminescence measurement technology.
# In order to screen pro-apoptotic small molecules that can enhance CART cell killing, a targeted screening assay was performed. […] Tumor killing was measured by luminescence at 48 hours.
# [5] = test system: CART19-BCL-2(WT); assay: Cytotoxicity of doxorubicin on CART cells, 24 hours; assay type: cell-based, human; conditions: doxorubicin 300 and 1000 nM
# Source text: FIGS. 26A-26H illustrate the finding that increased BCL-2 expression in T cells from CART apheretic products is associated with positive clinical outcomes in lymphoma patients at long term. FIG. 26A is a schematic description of the approach taken to investigate the relationship between the level of BCL-2 and CART's clinical response. RNA was extracted from T cells from apheretic products of 38 lymphoma patients who received CART19 immunotherapy (CTL019, i.e., tisagenleucleucel) in the clinical trial (NCT02030834). Next, BCL-2 mRNA expression was quantified via the nCounter analysis system (NanoString Technologies, Inc, Seattle, WA). FIG. 26B is a volcano plot showing differential gene expression in T cells based on best overall response (CR or NR). […] EGFR: Epidermal growth factor receptor.
# Nevertheless, to further investigate the safety profile of this approach, whether CART19-BCL-2(WT) cells are still sensitive to conventional cytotoxic drugs such as chemotherapy (e.g., doxorubicin) was assessed. […] Furthermore, to enhance the safety profile of CART19-BCL-2(WT) cells, a CART suicide system (Paszkiewicz, et al., The Journal of clinical investigation 2016; 126(11):4262-72) was employed by expressing truncated EGFR into CART19-BCL-2(WT).
structure (smiles),measurement,setting,value
CN(C)CC[C@H](CSc1ccccc1)Nc1ccc(S(=O)(=O)NC(=O)c2ccc(N3CCN(Cc4ccccc4-c4ccc(Cl)cc4)CC3)cc2)cc1[N+](=O)[O-] [ABT737],CART-mediated tumor killing (literature),[1],significant increase of CART-mediated tumor killing
Cc1c2c(nn1C)CSCc1cc(n(C)n1)CSc1cc(c3ccccc3c1)OCCCc1c(C(=O)O)n(C)c3c-2c(Cl)ccc13 [AZD5991],Enhancement of tumor killing in presence of CART,[2],"venetoclax, but not AZD5991 (MCL-1 inhibitor), leads to enhancement of tumor killing"
same,CART cell toxicity (CART survival),[3],induces severe CART cell toxicity
CC[C@H](NC(=O)[C@H](C)NC)C(=O)N1C[C@@H](O)C[C@H]1Cc1c(-c2[nH]c3cc(F)ccc3c2C[C@@H]2C[C@H](O)CN2C(=O)[C@H](CC)NC(=O)[C@H](C)NC)[nH]c2cc(F)ccc12 [birinapant],Enhancement of CART19 killing / CART cell cytotoxicity,[4],increased CART cell cytotoxicity
COc1cccc2c1C(=O)c1c(O)c3c(c(O)c1C2=O)C[C@@](O)(C(=O)CO)C[C@@H]3O[C@H]1C[C@H](N)[C@H](O)[C@H](C)O1 [doxorubicin],Elimination of BCL-2-expressing CART cells,[5],fast and effective elimination of CART19-BCL-2(WT)

# Source: patent publication US20240335539A1, “MODULATION OF BCL-2 TO ENHANCE CHIMERIC ANTIGEN RECEPTOR CANCER IMMUNOTHERAPY EFFICACY” (The Trustees of the University of Pennsylvania, priority 2021, published 2024)
